Measured values from patent US11633415B2, “Compounds and methods useful for treating or preventing cancers” (priority 2017, dated 2023).
Like-named read-outs stand apart in the source and are kept apart here.

Columns and labels:
CSNK1A1 [1] = target: T1, CSNK1A1 (Homo sapiens (Human), UniProt P48729); experiment: Kinase enzymatic IC50 (Carna Biosciences mobility shift assay); type: biochemical
Method: Enzymatic assays were performed using a mobility shift assay on the LabChip system. Purified kinase protein was incubated with ATP, substrate, and assay buffer (20 mM Hepes—pH 7.5; 5 mM MgCl2, and 0.01% Triton X-100). The assay reaction was initiated with 5 μM ATP and with each compound present. Compounds were tested at the KM,ATP for the protein target (GST-tagged full-length human CK1α, available from Carna Biosciences, Japan) or over a range of ATP concentrations between 5 μM and 9 μM. […] AC50 values were determined using phosphorylated and unphosphorylated substrates.

protein kinase A (PKA) = conditions: range stated jointly for PKA and insulin receptor kinase; cited from earlier work
insulin receptor kinase = insulin receptor kinase (Homo sapiens (Human), UniProt P06213); conditions: range stated jointly for PKA and insulin receptor kinase; cited from earlier work
Sequence of insulin receptor kinase (P06213 28-1382): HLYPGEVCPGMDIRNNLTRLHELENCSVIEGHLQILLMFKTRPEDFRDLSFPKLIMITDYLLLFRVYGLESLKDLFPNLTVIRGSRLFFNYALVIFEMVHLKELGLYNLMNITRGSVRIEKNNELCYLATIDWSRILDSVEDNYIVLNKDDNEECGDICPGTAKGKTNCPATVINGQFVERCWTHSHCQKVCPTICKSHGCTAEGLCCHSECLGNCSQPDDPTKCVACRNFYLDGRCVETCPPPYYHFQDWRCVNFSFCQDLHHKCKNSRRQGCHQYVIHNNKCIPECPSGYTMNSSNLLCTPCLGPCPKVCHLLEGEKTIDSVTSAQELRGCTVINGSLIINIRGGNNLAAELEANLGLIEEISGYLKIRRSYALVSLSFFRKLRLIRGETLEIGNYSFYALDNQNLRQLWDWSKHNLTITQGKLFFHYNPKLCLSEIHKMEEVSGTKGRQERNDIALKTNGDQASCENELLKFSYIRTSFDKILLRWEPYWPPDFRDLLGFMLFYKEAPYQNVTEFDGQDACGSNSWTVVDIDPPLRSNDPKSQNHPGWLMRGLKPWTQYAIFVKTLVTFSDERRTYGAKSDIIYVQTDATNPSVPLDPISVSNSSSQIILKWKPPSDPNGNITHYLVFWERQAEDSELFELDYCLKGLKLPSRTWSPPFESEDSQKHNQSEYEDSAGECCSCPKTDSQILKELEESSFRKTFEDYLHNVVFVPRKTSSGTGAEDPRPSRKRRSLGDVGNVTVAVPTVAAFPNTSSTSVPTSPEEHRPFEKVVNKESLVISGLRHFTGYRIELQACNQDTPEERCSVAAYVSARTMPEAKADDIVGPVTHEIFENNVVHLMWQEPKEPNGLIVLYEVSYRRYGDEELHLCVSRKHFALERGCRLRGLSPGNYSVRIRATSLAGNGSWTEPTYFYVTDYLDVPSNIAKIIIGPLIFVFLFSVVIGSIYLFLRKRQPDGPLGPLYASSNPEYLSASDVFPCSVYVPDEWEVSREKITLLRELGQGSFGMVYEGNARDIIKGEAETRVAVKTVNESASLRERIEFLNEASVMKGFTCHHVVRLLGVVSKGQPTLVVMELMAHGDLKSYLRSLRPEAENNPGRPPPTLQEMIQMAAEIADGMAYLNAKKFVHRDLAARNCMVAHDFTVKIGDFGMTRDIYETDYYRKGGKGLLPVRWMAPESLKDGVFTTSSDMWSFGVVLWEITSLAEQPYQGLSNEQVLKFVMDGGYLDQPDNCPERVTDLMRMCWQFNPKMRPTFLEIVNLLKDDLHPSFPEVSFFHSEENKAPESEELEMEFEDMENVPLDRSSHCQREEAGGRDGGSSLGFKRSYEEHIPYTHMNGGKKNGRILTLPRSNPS

[2] = tested on: more than 450 kinase assays; experiment: Kinome-wide profiling using the Kinomescan assay; type: binding
Description: (§1) The Kinomescan assay is a site-directed small molecule competition binding assay to quantitatively measure interactions between test compounds and more than 450 kinase assays. The assay employs DNA-tagged kinase proteins and a bead-immobilized kinase ligand. Active test compounds compete with the immobilized ligand and decrease the amount of bead-bound kinase. The assay result is detected using a multiplex quantitative PCR approach.

HT-29 = experiment: Cell viability by ATP abundance at 5 days (Cell Titer Glo); type: cell-based
Method: In addition to its role as a target in hematologic malignancies, CSNK1A1 expression is also essential to certain epithelial cancer cell lines. […] Results from each independent RNA interference construct were summarized into a single gene-level score, and the colorectal distribution of sensitivities was evaluated against the other lineages by the Mann-Whitney test as shown in FIG. 4A. […] Cell viability was assessed by ATP abundance at 5 days using the Cell Titer Glo assay.
Cell viability assays were conducted against colorectal carcinoma cell line HT29. Cells were plated in wells and at 24 hours after plating, compounds were added to determine their effect on cell viability at various dosages. After 48 hours from compound administration, the cell viability was determined and the IC50 values were calculated. […] FIG. 4B illustrates the results of another cell viability measurement and IC50 value for Compound 1 assessed by ATP abundance on HT29 at 5 days.

CSNK1D = CSNK1D (Homo sapiens (Human), UniProt P48730); experiment: Kinomescan competition binding assay, confirmatory Kd; conditions: confirmatory testing
Sequence of CSNK1D (P48730 whole entry): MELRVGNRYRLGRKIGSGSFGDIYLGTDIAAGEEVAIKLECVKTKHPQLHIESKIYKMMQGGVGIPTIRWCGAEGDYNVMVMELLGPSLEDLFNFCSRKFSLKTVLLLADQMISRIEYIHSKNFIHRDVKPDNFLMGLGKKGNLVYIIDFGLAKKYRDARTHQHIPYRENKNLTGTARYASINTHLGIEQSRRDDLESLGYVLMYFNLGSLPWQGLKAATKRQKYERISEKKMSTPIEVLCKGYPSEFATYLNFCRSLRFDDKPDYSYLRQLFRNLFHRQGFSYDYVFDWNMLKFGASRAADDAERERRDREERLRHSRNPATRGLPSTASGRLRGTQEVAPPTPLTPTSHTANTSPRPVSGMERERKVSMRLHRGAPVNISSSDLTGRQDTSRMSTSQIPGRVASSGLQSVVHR
Description: as §1

CSNK1A1 [3] = target: T1, CSNK1A1; experiment: as above
Description: as §1, with “Active test compounds compete with the immobilized ligand and decrease the amount of bead-bound kinase.” left out

[4] = Table 1, CSNK1A1 inhibitors, read-out: IC50

T1 sequence (P48729 whole entry): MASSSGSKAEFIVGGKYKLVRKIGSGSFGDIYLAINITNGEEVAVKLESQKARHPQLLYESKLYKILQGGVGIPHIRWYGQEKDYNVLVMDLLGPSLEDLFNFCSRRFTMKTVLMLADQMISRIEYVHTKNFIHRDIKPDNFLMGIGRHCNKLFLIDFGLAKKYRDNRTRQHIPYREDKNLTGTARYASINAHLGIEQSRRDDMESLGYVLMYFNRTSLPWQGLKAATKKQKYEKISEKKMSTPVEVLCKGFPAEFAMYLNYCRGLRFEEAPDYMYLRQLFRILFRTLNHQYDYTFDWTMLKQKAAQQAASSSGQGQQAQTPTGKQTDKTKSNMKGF

Nc1ncnc2c1c(I)cn2[C@@H]1O[C@H](CO)[C@@H](O)[C@H]1O [5-iodotubercidin, 5-Iodo-7-β-D-ribofuranosyl-7H-pyrrolo[2,3-d]pyrimidin-4-amine, reference compound]
IC50 (CSNK1A1 [1]; [4]): 287 nM
IC50 (CSNK1A1 [1]; known inhibitors, background text (rounded Table 1 values), read-out: IC50 against CSNK1A1): 290 nM
IC50 (protein kinase A (PKA)): 400 to 28000 nM
IC50 (insulin receptor kinase): 400 to 28000 nM

CCN1CCN(c2nc3ccccc3nc2C(C#N)C(=O)OC2CCCCC2)CC1 (centres unmarked) [compound 1, cyclohexyl 2-cyano-2-(3-(4-ethylpiperazin-1-yl)quinoxalin-2-yl)acetate]
binding specificity in kinome-wide profiling ([2]; 450 kinases tested at a single dose of 10 μM): remarkable specificity for compound binding to CSNK1A1
number of kinases bound ([2]; out of over 400 kinases tested): six
cell viability of HT-29 (HT-29): inhibited
IC50 (CSNK1A1 [1]): 10100 nM
IC50 (CSNK1A1 [1]; [4]): 12900 nM
Kd (CSNK1D): 3200 nM
Kd (CSNK1A1 [3]): 1700 nM
